Assays:
Monocytes = Monocytes proliferation (3H-thymidine incorporation, SI); format: cell-based; details: human monocytes, 1 μg/ml, 7th day
Protocol: Monocytes were isolated from human whole blood using Histopaque 1077. And then, monocytes (5×10^6 cells/ml) were allowed to adhere to tissue culture flask for 3 hours in a 5% CO2 incubator. After 3 hours, non-adherent cells were removed and adherent cells were placed in 96-well plates in RPMI 1640 medium (GIBCO, Grand Island, N.Y.) supplemented with 10% FBS. 5×10^4 viable cells per well were cultured in 96-well plates, with 1 μg/ml of Compound 1˜5. On the 6th day, cells were incubated with 1 μCi ^3H-thymidine/well for 24 hours. On the 7th day, the cells were harvested and the incorporation of ^3H-thymidine was measured. Si was calculated by the above mentioned formula 1.

T-cells = experiment: T-cell proliferation (3H-thymidine incorporation, SI); format: cell-based, C57BL/6 mice; details: 1 μg/ml, 7th day, CPM in sample/CPM in control
From the text: Splenocytes were collected from C57BL/6 mice (provided from Asan Institute for Life Sciences Animal Lab., Seoul, Korea) spleens. Then, single cell suspensions were obtained by repeated aspiration and flushing. Red blood cells were removed using ammonium chloride and then passed through nylon wool to remove debris and clumps. T-cells were purified using magnetic bead (MACS bead, Miltenyi Biotec, bergich gladbach, Germany) containing anti-goat IgG MACS bead, Miltenyi Biotec, bergich gladbach, Germany) or anti-mouse CD4 (MACS bead, Miltenyi Biotec, bergich gladbach, Germany) or anti-mouse CD8 antibody (MACS bead, Miltenyi Biotec, bergich gladbach, Germany) (Turner and Dockrell (1996) Immunology, 87: 339-342).
T cell suspensions were suspended in Isocove's modified Dulbecco's medium (IMDM, Gibco, Grand Island, N.Y.) supplemented with 10% fetal bovine serum (referred as ‘FBS’ hereinafter) (Gibco, Grand Island, N.Y.). […] On the 6th day, cells were incubated with 1 μCi ^3H-thymidine/well for 24 hours. On the 7th day, the cells were harvested and the […] (referred as ‘SI’ hereinafter) was calculated by the following Mathematical Formula 1. SI=^3H-thymidine absorbed by wells of experimental group (CPM in sample)/^3H-thymidine absorbed by wells of control group (CPM in control) [Mathematical Formula 1]

## CCCCCCCC/C=C\CCCCCCCC(=O)OCC(COC(C)=O)OC(=O)CCCCCCCCCCCCCCC (centres unmarked) [Compound 1, 1-oleoyl-2-2palmitoyl-3-acetylglycerol]
Monocytes
  SI (±S.E): 9.97 ± 0.10
T-cells
  SI: 2.01 ± 0.43

## CCCCC/C=C\C/C=C\C/C=C\C/C=C\CCCC(=O)OC(COC(C)=O)COC(=O)CCCCCCCCCCCCCCC (centres unmarked) [Compound 5, 1-palmitoyl-2-arachidonoyl-3-acetylglycerol]
Monocytes
  SI (±S.E): 9.75 ± 0.09
T-cells
  SI: 2.02 ± 0.38

## CC/C=C\C/C=C\C/C=C\CCCCCCCC(=O)OC(COC(C)=O)COC(=O)CCCCCCCCCCCCCCC (centres unmarked) [Compound 4, 1-palmitoyl-2-linolenoyl-3-acetylglycerol]
Monocytes
  SI (±S.E): 10.21 ± 0.18
T-cells
  SI: 1.98 ± 0.26

## CCCCCCCC/C=C\CCCCCCCC(=O)OC(COC(C)=O)COC(=O)CCCCCCCCCCCCCCC (centres unmarked) [Compound 2, 1-palmitoyl-2-oleoyl-3-acetylglycerol]
Monocytes
  SI (±S.E): 10.42 ± 0.15
T-cells
  SI: 2.03 ± 0.54
